We go through 28 compounds from ChEMBL document CHEMBL2021792, “Tetrahydro-naphthols as orally available TRPV1 inhibitors” (Bioorg Med Chem Lett, 2012).

In series [1] the target is Transient receptor potential cation channel subfamily V member 1 (Homo sapiens, UniProt Q8NER1). Kind of series: Antagonist activity at human TRPV1 expressed in CHOluc9aeq cells assessed as inhibition of capsaicin-stimulated response by aequorin and CRE-lucifearase reporter gene assay. Type of series: functional, cell-based.
Series [2] in a line: AUC in rat at 1 mg/kg, po. Details: dose 1 mg/kg, route oral. The conditions noted are these: plasma. Type of series: ADME, organism-based.
The nature of series [3]: Oral bioavailability in rat at 1 mg/kg. The conditions noted are these: in vivo. Type of series: ADME, organism-based.
In the next series the test system is Plasma. Nature of the series: Unbound fraction in rat plasma. Type of series: ADME, cell-free.

Sequence of Transient receptor potential cation channel subfamily V member 1 (Q8NER1 whole entry): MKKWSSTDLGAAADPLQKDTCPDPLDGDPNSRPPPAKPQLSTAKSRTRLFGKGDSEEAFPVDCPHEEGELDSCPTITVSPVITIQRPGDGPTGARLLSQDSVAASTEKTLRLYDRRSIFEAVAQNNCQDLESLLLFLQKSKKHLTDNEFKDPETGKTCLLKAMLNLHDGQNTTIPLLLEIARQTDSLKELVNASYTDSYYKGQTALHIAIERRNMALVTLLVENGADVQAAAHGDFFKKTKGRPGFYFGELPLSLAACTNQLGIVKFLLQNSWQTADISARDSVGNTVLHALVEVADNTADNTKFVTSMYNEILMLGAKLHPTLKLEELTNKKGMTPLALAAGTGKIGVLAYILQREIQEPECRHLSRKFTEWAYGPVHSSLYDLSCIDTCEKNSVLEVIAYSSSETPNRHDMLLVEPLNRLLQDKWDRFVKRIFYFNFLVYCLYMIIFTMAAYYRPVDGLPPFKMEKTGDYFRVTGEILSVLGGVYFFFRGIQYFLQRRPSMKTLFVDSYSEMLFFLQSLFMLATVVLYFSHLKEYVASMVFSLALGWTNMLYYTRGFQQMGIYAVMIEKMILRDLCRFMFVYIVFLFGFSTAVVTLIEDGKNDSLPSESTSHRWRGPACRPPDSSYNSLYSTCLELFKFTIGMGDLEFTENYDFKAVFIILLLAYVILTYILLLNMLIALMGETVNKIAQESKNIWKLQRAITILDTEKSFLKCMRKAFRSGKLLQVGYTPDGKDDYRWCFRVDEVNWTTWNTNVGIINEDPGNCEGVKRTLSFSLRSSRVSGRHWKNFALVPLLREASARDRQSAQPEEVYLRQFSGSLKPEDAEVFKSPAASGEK

Consider `O=C(Nc1ccc(Cl)c(C(F)(F)F)c1)Nc1cccc2cc(O)ccc12`, for which, in series [1], the IC50 is 18 nM.

As for `O=C(Nc1ccc(Cl)c(C(F)(F)F)c1)Nc1cccc2c(O)cccc12`, the IC50 in series [1] stood at 45 nM.

Turning to `O=C(Nc1ccc(Cl)c(C(F)(F)F)c1)Nc1cccc2ccc(O)c(F)c12`, in series [1], the IC50 was 9.1 nM.

Consider `O=C(Nc1ccc(Cl)c(C(F)(F)F)c1)Nc1cccc2ccc(C(=O)O)cc12`, for which, in series [1], the IC50 was 84 nM.

With `O=C(Nc1ccc(Cl)c(C(F)(F)F)c1)Nc1ccc2ccc(O)cc2c1`, in series [1], the IC50 worked out at 130 nM.

Take `Nc1ccc2cccc(NC(=O)Nc3ccc(Cl)c(C(F)(F)F)c3)c2c1`: the IC50 in series [1] is 34 nM. This compound showed an AUC in series [2] of 217 ng·h/mL.

As for `CNc1ccc2cccc(NC(=O)Nc3ccc(Cl)c(C(F)(F)F)c3)c2c1`, in series [1], the IC50 was 30 nM. The compound further gave an AUC in series [2] of 125 ng·h/mL.

For `O=C(Nc1ccc(Cl)c(C(F)(F)F)c1)Nc1cccc2ccc(NCc3ccccc3)cc12`, the IC50 in series [1] turned out to be 140 nM. Moreover, the AUC in series [2] amounted to 12 ng·h/mL.

With `Nc1cc2c(NC(=O)Nc3ccc(Cl)c(C(F)(F)F)c3)cccc2cc1Cl`, the IC50 in series [1] is greater than 1000 nM.

Consider `CC(=O)Nc1ccc2cccc(NC(=O)Nc3ccc(Cl)c(C(F)(F)F)c3)c2c1`, for which the IC50 in series [1] came out at 530 nM. This compound had an AUC in series [2] of 1590 ng·h/mL.

Consider `CS(=O)(=O)Nc1ccc2cccc(NC(=O)Nc3ccc(Cl)c(C(F)(F)F)c3)c2c1`, for which the IC50 in series [1] is greater than 1000 nM. In addition, the AUC in series [2] stood at 709 ng·h/mL.

With `NS(=O)(=O)c1ccc2cccc(NC(=O)Nc3ccc(Cl)c(C(F)(F)F)c3)c2c1`, in series [1], the IC50 was found to be 710 nM.

Take `NS(=O)(=O)Cc1ccccc1NC(=O)Nc1ccc(Cl)c(C(F)(F)F)c1`: the IC50 in series [1] is 460 nM.

Take `NS(=O)(=O)c1ccccc1NC(=O)Nc1ccc(Cl)c(C(F)(F)F)c1`: the IC50 in series [1] was greater than 1000 nM.

Take `O=C(Nc1ccc(Cl)c(C(F)(F)F)c1)Nc1cccc2cc[nH]c12`: the IC50 in series [1] is 67 nM. Also, the AUC in series [2] was determined as 176 ng·h/mL.

Take `O=C(Nc1ccc(Cl)c(C(F)(F)F)c1)Nc1cccc2nn[nH]c12`: in series [1], the IC50 was 180 nM.

Regarding `O=C(Nc1ccc(Cl)c(C(F)(F)F)c1)Nc1cccc2[nH]ccc12`, the IC50 in series [1] came to 33 nM. For the same compound, the AUC in series [2] is 530 ng·h/mL.

For `O=C(Nc1ccc(Cl)c(C(F)(F)F)c1)Nc1cccc2nc(C(F)(F)F)[nH]c12`, the IC50 in series [1] was 32 nM.

For the compound `Cc1nc2cccc(NC(=O)Nc3ccc(Cl)c(C(F)(F)F)c3)c2[nH]1`, the IC50 in series [1] worked out at 58 nM.

For `O=C(Nc1ccc(Cl)c(C(F)(F)F)c1)Nc1ccccc1CCCO`, the IC50 in series [1] came out at 220 nM.

Regarding `O=C(Nc1ccc(Cl)c(C(F)(F)F)c1)Nc1ccccc1CCO`, the IC50 in series [1] turned out to be 56 nM. In addition, in series [2], the AUC came to 374 ng·h/mL.

In the case of `O=C(Nc1ccc(Cl)c(C(F)(F)F)c1)Nc1ccccc1CO`, in series [1], the IC50 worked out at 330 nM.

As to `NCCc1ccccc1NC(=O)Nc1ccc(Cl)c(C(F)(F)F)c1`, the IC50 in series [1] is greater than 1000 nM.

Turning to `O=C(Nc1cccc(CCO)c1)Nc1ccc(Cl)c(C(F)(F)F)c1`, the IC50 in series [1] turned out to be 230 nM. Also, the AUC in series [2] is 75 ng·h/mL.

For `Cc1cccc(NC(=O)Nc2ccc(Cl)c(C(F)(F)F)c2)c1CCO`, the IC50 in series [1] came out at 16 nM.

On to `O=C(Nc1ccc(Cl)c(C(F)(F)F)c1)Nc1cccc2c1CC(O)CC2` (racemic), for which the AUC in series [2] came out at 650 ng·h/mL. Besides, the bioavailability in series [3] worked out at 74%. Also, in the series with Plasma, the Fu was determined as 0.28%.

As to `O=C(Nc1ccc(Cl)c(C(F)(F)F)c1)Nc1cccc2c1CC(CO)CC2` (racemic), the IC50 in series [1] stood at 87 nM.

In the case of `CC1CCc2cccc(NC(=O)Nc3ccc(Cl)c(C(F)(F)F)c3)c2C1` (racemic), in series [1], the IC50 was 93 nM.
